The NIST ThermoML archive (doi:10.1016/j.jct.2008.01.003)

Assay: mn = molality of the nth substance listed, in mol/kg
Settings: 101 kPa, Liquid

CCCCCCn1cc[n+](C)c1.[Br-] [3-hexyl-1-methyl-1H-imidazolium bromide] + O
Settings	mass density, 293.15 K [kg/m3]	mass density, 298.15 K [kg/m3]	speed of sound, 293.15 K [m/s]	speed of sound, 298.15 K [m/s]
m1 = 0.0042	–	997.246	–	1497.5
m1 = 0.0048	–	997.266	–	1497.5
m1 = 0.0067	–	997.351	–	1497.7
m1 = 0.0081	–	997.413	–	1497.7
m1 = 0.0139	–	997.679	–	1498.6
m1 = 0.0295	–	998.405	–	1500.5
m1 = 0.0369	–	998.754	–	1500.6
m1 = 0.0487	–	999.3	–	1502.2
m1 = 0.064	–	999.994	–	1504.1
m1 = 0.073	–	1000.4	–	1505.2
m1 = 0.094	–	1001.35	–	1507.8
m1 = 0.1183	–	1002.44	–	1510.9
m1 = 0.1423	–	1003.53	–	1513.9
m1 = 0.1639	1005.77	1004.47	1504.1	1516.3
m1 = 0.2206	1008.31	1006.95	1511.2	1522.8
m1 = 0.2581	1009.94	1008.55	1515.6	1526.7
m1 = 0.3034	1011.93	1010.5	1521	1531.6
m1 = 0.3543	1014.08	1012.61	1526.7	1536.8
m1 = 0.3874	1015.53	1014.03	1530.4	1540.1
m1 = 0.4492	1018.13	1016.57	1536.4	–
m1 = 0.6269	1025.28	–	1553.8	–
m1 = 0.8614	1034.03	–	1571.3	–
m1 = 1.001	1038.8	–	1579.6	–
m1 = 1.321	1049.03	–	1593.4	–
m1 = 1.739	1060.74	–	1604.1	–
m1 = 2.087	1069.36	–	1609.6	–
